Assay results: PMC9127750, “Structure-based design of CDC42 effector interaction inhibitors for the treatment of cancer” (Cell reports, 2022)
Where “and” joins values, the source holds several entries; their conditions need not be identical. Equal values may be shown once.

Tested on: WM3248 melanoma cells, 486 antibodies
Test: Reverse phase protein arrays (RPPA)
Format: cell-based, Human
Excerpt: Pellets were snap frozen in liquid nitrogen and shipped to MD Anderson Cancer Center core RPPA facility for RPPA analysis (Table S5). Three biological replicates for each sample were generated.
Nomenclatures on the RPPA heatmaps: name_of_antibody.species_of_antibody.status_of_antibody. V - antibody validated; C - validation of antibody in progress; Q - antibody nonspecific; E – under evaluation; antibodies raised in M - mouse, G - goat, R - rabbit, or T - rat.

[1] = Norm_10, replicates 1-3 and Average, relative to Norm_0

## CN(C)c1cccc(Nc2cc(-c3ccccc3)nc(C3CCNCC3)n2)c1 [ARN22089, N1,N1-dimethyl-N3-(6-phenyl-2-(piperidin-4-yl)pyrimidin-4-yl)benzene-1,3-diamine]
[1]
  A.Raf.R.V RPPA signal, normalized: 1.018 and 0.886 and 0.845 and 0.916
  A.Raf_pS299.R.C RPPA signal, normalized: 0.956 and 1.046 and 0.963 and 0.988
  ACC1.R.C RPPA signal, normalized: 0.867 and 0.964 and 1.014
  ACC_pS79.R.V RPPA signal, normalized: 1.238 and 0.635 and 0.956 and 0.943
  ACLY_pS455.R.V RPPA signal, normalized: 1.247 and 1.003 and 1.249 and 1.166
  ACSL1.R.V RPPA signal, normalized: 1.119 and 1.062 and 0.954
  ACVRL1.R.C RPPA signal, normalized: 0.974 and 1.028 and 1.030
  ADAR1.M.V RPPA signal, normalized: 1.080 and 1.272 and 0.921
  ALKBH5.R.V RPPA signal, normalized: 1.021 and 1.291 and 1.103 and 1.138
  AMPK.a2_pS345.R.V RPPA signal, normalized: 0.954 and 0.956 and 0.960
  AMPKa.R.C RPPA signal, normalized: 1.010 and 0.920 and 1.002 and 0.977
  AMPKa_pT172.R.C RPPA signal, normalized: 3.569 and 0.222 and 0.796 and 1.529
  AR.R.V RPPA signal, normalized: 0.751 and 0.934 and 0.920
  ARID1A.R.C RPPA signal, normalized: 1.114 and 1.573 and 0.868 and 1.185
  ASNS.R.V RPPA signal, normalized: 1.340 and 0.994 and 0.954 and 1.096
  ATM.R.V RPPA signal, normalized: 0.847 and 0.838 and 0.979 and 0.888
  ATM_pS1981.R.V RPPA signal, normalized: 0.930 and 1.145
  ATP5A.M.C RPPA signal, normalized: 1.031 and 1.371 and 1.971 and 1.457
  ATP5H.R.V RPPA signal, normalized: 0.974 and 1.346 and 1.188 and 1.169
  ATR.R.V RPPA signal, normalized: 0.962 and 1.081 and 1.002 and 1.015
  ATRX.R.C RPPA signal, normalized: 0.876 and 0.968 and 0.978
  ATR_pS428.R.C RPPA signal, normalized: 1.008 and 0.851 and 1.012 and 0.957
  AceCS1.R.V RPPA signal, normalized: 1.235 and 1.121
  Akt1.R.V RPPA signal, normalized: 0.800 and 0.756 and 1.156 and 0.904
  Akt1_pS473.R.V RPPA signal, normalized: 0.892 and 0.682 and 1.059 and 0.878
  Akt2.R.V RPPA signal, normalized: 0.829 and 0.768 and 1.018 and 0.872
  Akt2_pS474.R.C RPPA signal, normalized: 1.011 and 0.801 and 0.950
  Akt.R.V RPPA signal, normalized: 0.830 and 0.878 (2×) and 0.925
  Akt_pS473.R.V RPPA signal, normalized: 2.128 and 0.984 and 1.238 and 1.450
  Akt_pT308.R.V RPPA signal, normalized: 1.187 and 1.056 and 1.185 and 1.143
  Ambra1_pS52.R.C RPPA signal, normalized: 0.964 (2×) and 1.015 and 0.981
  Annexin.I.M.V RPPA signal, normalized: 0.849 and 0.987 and 1.005
  Annexin.VII.M.V RPPA signal, normalized: 0.985 and 1.189 and 0.954
  Atg3.R.V RPPA signal, normalized: 0.983 and 0.993 and 0.963
  Atg4B.R.C RPPA signal, normalized: 0.966 and 1.004
  Atg5.R.C RPPA signal, normalized: 0.905 and 0.930 and 0.971 and 0.935
  Atg7.R.V RPPA signal, normalized: 0.958 and 0.891 and 0.903 and 0.917
  Aurora.A.R.C RPPA signal, normalized: 0.694 and 1.245 and 1.028 and 0.989
  Aurora.ABC_pT288_pT232_pT198.R.C RPPA signal, normalized: 1.548 and 0.847 and 0.955 and 1.117
  Aurora.B.R.V RPPA signal, normalized: 1.012 and 1.271 and 1.347 and 1.210
  Axl.R.V RPPA signal, normalized: 1.047 and 0.637 and 0.861 and 0.848
  B7.H3.R.C RPPA signal, normalized: 0.961 and 0.915 and 0.940 and 0.939
  B7.H4.R.C RPPA signal, normalized: 0.943 and 0.916 and 1.001 and 0.953
  B.Raf.R.C RPPA signal, normalized: 0.738 and 0.844 and 1.157 and 0.913
  B.Raf_pS445.R.V RPPA signal, normalized: 0.940 and 0.823 and 0.918 and 0.894
  BAP1.M.V RPPA signal, normalized: 0.893 and 1.010 and 1.204
  BCL2A1.R.V RPPA signal, normalized: 0.914 and 2.333 and 1.252 and 1.499
  BMK1.Erk5_pT218_Y220.R.V RPPA signal, normalized: 0.935 and 0.870 and 0.918
  BRCA1.M.C RPPA signal, normalized: 0.931 and 1.056 and 1.010
  BRD4.R.V RPPA signal, normalized: 1.134 and 1.372 and 0.806 and 1.104
  Bad_pS112.R.V RPPA signal, normalized: 1.129 and 0.968 and 1.064 and 1.054
  Bak.R.C RPPA signal, normalized: 1.051 and 0.994 and 0.952 and 0.999
  Bax.R.V RPPA signal, normalized: 0.935 and 1.085 and 1.013 and 1.011
  Bcl2.R.C RPPA signal, normalized: 0.991 and 1.244 and 1.141 and 1.125
  Bcl.xL.R.V RPPA signal, normalized: 0.890 and 1.164 and 1.151
  Beclin.R.C RPPA signal, normalized: 0.901 and 1.245 and 1.080
  BiP.GRP78.M.C RPPA signal, normalized: 0.879 and 1.117 and 1.006 and 1.001
  Bid.R.C RPPA signal, normalized: 0.866 and 0.980 and 0.948 and 0.931
  Bim.R.V RPPA signal, normalized: 0.847 and 0.884 and 0.890 and 0.874
  X4E.BP1.R.V RPPA signal, normalized: 1.207 and 0.505 and 0.892 and 0.868
  X4E.BP1_pS65.R.V RPPA signal, normalized: 0.934 and 1.191 and 1.054
  X4E.BP1_pT37_T46.R.V RPPA signal, normalized: 0.921 and 1.081 and 1.234 and 1.079
  X14.3.3.zeta.R.V RPPA signal, normalized: 1.058 and 1.063
  X14.3.3βR.V RPPA signal, normalized: 0.989 and 1.030 and 1.010 (2×)
  X14.3.3εM.C RPPA signal, normalized: 0.934 and 0.986 and 1.121 and 1.013
  X53BP1.R.V RPPA signal, normalized: 0.994 and 0.931 and 0.923
  b.Actin.R.C RPPA signal, normalized: 0.850 and 1.249 and 1.164
  b.Catenin.R.V RPPA signal, normalized: 0.881 and 0.923
  b.Catenin_pT41_S45.R.V RPPA signal, normalized: 1.016 and 0.989 and 1.006 and 1.004
  c.Abl.R.V RPPA signal, normalized: 1.105 and 1.008 and 1.020
  c.Abl_pY412.R.C RPPA signal, normalized: 0.873 and 0.871 and 0.928
  c.IAP2.R.C RPPA signal, normalized: 1.099 and 1.057
Norm_10 Average
  C.Raf.R.C normalized signal: 0.862
  C.Raf_pS338.R.V normalized signal: 0.971
  CA9.R.C normalized signal: 0.943
  CD2.M.C normalized signal: 0.963
  CD4.R.V normalized signal: 0.931
  CD5.M.C normalized signal: 1.007
  CD20.R.C normalized signal: 1.296
  CD26.R.V normalized signal: 1.007
  CD29.M.V normalized signal: 0.953
